These results are taken from patent publication US5026724A, “Compounds with bronchodilator activity” (Akzo N.V., priority 1988, dated 1991).

Where a name gives a salt, the structure may show the parent alone.

In this assay the test system is Isolated, single ring preparations of guinea-pig trachea. In words: relaxant effect after tone contracture induced by histamine in isolated guinea-pig trachea rings. It is filed as cell-based. The following applies: Cavia porcellus, contracture by histamine (40 μM), flurbiprofen (1 μM) present, 37° C., cumulative concentration-effect curves. The protocol: Compounds of formula I show strong bronchodilator activity, which for instance can be measured by the relaxant effect of the compounds after tone contracture by histamine, which is determined as follows. Isolated, single ring preparations of guinea-pig trachea were suspended in tissue baths containing KrebsHenseleit solution, at 37° C., bubbled with a gaseous mixture of 5% CO2 and 95% 02 Tissues were allowed to equilibrate for 60 min. after which flurbiprofen (1 μM), a cyclo-oxygenase inhibitor, was added to the tissue bath and a further 60 min. equilibration allowed to elapse. The flurbiprofen remained in contact with the tissue for the duration of the experiment in order to eliminate the complications that arise in guinea-pig airway preparations due to the spontaneous and agonist-induced generation of cyclo-oxygenase products (for example PGE2 and PGF2α) No other drugs (e.g. atropine or β-adrenoceptor antagonists) were present during the experimental protocol. […] Thus, tone (contracture) was induced by addition of an equi-effective (EC50) concentration of histamine (40 μM). The relaxant effects of each compound were tested by constructing cumulative concentration-effect curves. In each experiment, three preparations were contracted with histamine. After completion of the relaxant concentration-effect curves the compound under test was thoroughly washed out from the preparations which were then left to recover to control levels of resting tension (approx. 60 min.). Results of this test for the compounds of formula I are denoted in the table.

The term EC50 denotes the concentration needed to bring the measured effect to its halfway point. A high value points to a less potent agent. Take `COc1cc2sc(C=NO)cc2c(Cl)c1OC` (mixture of isomers) [Cl OCH3 H H(Z/E mixture) S none, 4-chloro-5,6-dimethoxy-benzo[b]thiophene-2-carboxaldehyde oxime]: the EC50 worked out at 5 µM. `COc1cc2sc(C(=N)NO)cc2c(Br)c1OC` [Br OCH3 H NH2 S CH3 SO3 H, 4-bromo-N-hydroxy-5,6-dimethoxy-benzo[b]thiophene-2-carboximidamide methanesulphonate] came in with an EC50 of 1 µM. The result for `COc1c(OC)c(Cl)c2sc(C(=N)NO)cc2c1Cl` [Cl OCH3 Cl NH2 S HCl, 4,7-dichloro-N-hydroxy-5,6-dimethoxy-benzo[b]thiophene-2-carboximidamide hydrochloride] reads 8 µM; that for `COc1cc2sc(C(=N)NO)cc2c(Cl)c1O` [Cl OH H NH2 S HCl, 4-chloro-5,N-dihydroxy-6-methoxy-benzo[b]thiophene-2-carboximidamide hydrochloride], 10 µM; that for `COc1cc2sc(C(=N)NO)cc2c(F)c1OC` [F OCH3 H NH2 S CH3 SO3 H, 4-fluoro-N-hydroxy-5,6-dimethoxy-benzo[b]thiophene-2-carboximidamide], 2.5 µM. The result for `COc1cc2cc(/C(C)=N/O)sc2cc1OC` [H OCH3 H CH3 (E-isomer) S none, (E)-1-(5,6-dimethoxy-benzo[b]thien-2-yl)-ethanone oxime] reads 0.1 µM; that for `COc1cc2cc(/C=N/O)sc2cc1OC` [H OCH3 H H(E-isomer) S none, (E)-5,6-dimethoxy-benzo[b]thiophene-2-carboxaldehyde oxime], 2 µM.

`COc1cc2cc(/C=N\O)sc2cc1OC` [H OCH3 H H(Z-isomer) S none, (Z)-5,6-dimethoxy-benzo[b]thiophene-2-carboxaldehyde oxime] showed an EC50 of 5 µM. The result for `COc1cc2c(cc1OC)CCC(C(=N)NO)=C2` [H OCH3 H NH2 (CH2)2 HCl, 1,2-dihydro-N-hydroxy-6,7-dimethoxy-naphthalene-3-carboximidamide] reads 3 µM; that for `COc1cc2cc(C(=N)NO)sc2cc1OC` [H OCH3 H NH2 S none, N-hydroxy-5,6-dimethoxy-benzo[b]thiophene-2-carboximidamide], 8 µM; that for `COc1cc2sc(C(=N)NO)cc2cc1OC(F)F` [H OCHF2 H NH2 S HCl, 5-difluoromethyloxy-N-hydroxy-6-methoxy-benzo[b]thiophene-2-carboximidamide hydrochloride], 5 µM. The result for `COc1cc(OC)c2cc(C(=N)NO)oc2c1` [OCH3 H H NH2 O HCl, N-hydroxy-4,6-dimethoxy-benzo[b]furan-2-carboximidamide] reads 5 µM.
